How the values were obtained:
[1] = tested on: total protein synthesis in HeLa HIVrtTA∆Mls cells; experiment: SUnSET total protein synthesis; assay type: cell-based; conditions: doses that significantly reduced HIV-1 protein expression, ∓Dox
Method: The effect of the compounds on nascent protein synthesis was measured by surface sensing of translation (SUnSET) as described by Schmidt et al.. Cells were incubated with puromycin, an aminoacyl tRNA analog, to allow puromycin incorporation into newly translated peptides and prevention of further ribosomal elongation by chain termination. To assess the effect of the compounds on protein translation, cells were prepared and treated as described above, but were incubated with 10 μg/mL of puromycin for a period of 30 min prior to harvesting cell lysates for protein analysis. Protein concentration of cell lysates was quantified by Bradford assay and equal amounts of protein (30–35 μg) was run on either 10% or 4–15% (gradient) gels. Following transfer to PVDF (BioRad), blots were probed with mouse monoclonal antibody to puromycin (anti-12D10, EMD Millipore). Blots were developed using ECL Plus (Perkin-Elmer) or Clarity (BioRad) and imaged using the ChemiDoc MP Imager (BioRad). To quantify the levels of protein synthesis, the volume intensity in each lane of compound-treated sample was calculated relative to the DMSO-treated sample and normalized to GAPDH loading control using ImageLab software (BioRad) from at least four independent experiments.

HIV-1 BaL = HIV-1 BaL replication in PBMCs, p24 antigen ELISA; assay type: cell-based; conditions: for IC50: Human immunodeficiency virus 1, BAL, PBMC
Method: To examine the effect of compounds on viral replication, studies were carried out in peripheral blood mononuclear cells (PBMCs). PBMCs were isolated from healthy (HIV-uninfected) volunteer blood donors as described by Dobson-Belaire et al.. Informed consent was obtained from participants in accordance with the guidelines for conduct of clinical research at the University of Toronto and St. Michael’s Hospital, Toronto, Ontario, Canada. Stored PBMCs were thawed, washed with RPMI 1640 complete medium and cultured in RPMI 1640 complete medium containing 2 μg/mL of PHA-L (Sigma-Aldrich) and 20 U/mL of IL-2 (BD Pharmingen) for 72 h. Subsequently, cells were counted and a portion of the cells was separated to another tube for uninfected control treatments. The remaining PBMCs were resuspended in media containing HIV-1 BaL at a multiplicity of infection (MOI) of approximately 0.01 and infected by spinoculation, following which cells were washed twice with room temperature RPMI 1640 complete medium and resuspended to a concentration of 5 × 10^5 cells/mL in complete RPMI 1640 containing 20 U/mL of IL-2. Compounds were added to infected PBMCs or uninfected control PBMCs. Azidothymidine (AZT, Sigma-Aldrich) was used as control treatment at a final concentration of 3.74 μM. On day 4 post infection, culture medium was replenished with the compounds and IL-2 in fresh complete RPMI 1640. On days 2, 4, 6 and 8 post infection, culture supernatant was harvested, virus lysed by adjusting to 1% TritonX-100 and stored at −20 °C for p24 antigen ELISA. A fraction of the culture was harvested to assess percent cell viability by trypan blue exclusion using Glasstic slides (Kova). Relative percent cell viability in compound treated samples versus DMSO-control treated samples was calculated as follows: (total viable cells/total cells)compound/(total viable cells/total cells)DMSO.
ELISA for p24 Gag antigen was performed on cell supernatants using kits purchased from Frederick National Laboratory for Cancer Research (Leidos) or XpressBio extended range kit and performed according to manufacturer’s instructions. Protein concentration in cell lysates was quantified by Bradford assay and equal amounts of protein run on 7, 10, 12, or 14% SDS-PAGE, depending on the protein of interest. Following transfer to PVDF (BioRad or Perkin-Elmer), blots were blocked in either 5% Milk-PBS-T (5% Milk, 0.05% Tween-20, 1× PBS) or 3% BSA-PBS-T (3% BSA, 0.05% Tween-20, 1× PBS) prior to incubating with primary antibody (all diluted in 3% BSA-PBS-T). […] Quantification of the relative intensity of the detected bands was done using ImageLab software and normalized to corresponding bands of the loading control (GAPDH or α-Tubulin).

Compound | reduction in protein synthesis relative to DMSO [1] | IC50 (HIV-1 BaL) | doses inhibiting HIV-1 virus production that did not affect cell viability (HIV-1 BaL; PBMCs, 2–4 donors)
COc1ccc(C=NNC(=O)c2ccccc2O)cc1O [Compound 892, 2-hydroxy-N′-(3-hydroxy-4-methoxybenzylidene)benzohydrazide] | ~ 25% | 2000 nM | 
O=C(NC(=S)NNC(=O)c1ccccc1O)c1ccc(-c2ccccc2)cc1 [Compound 833, N-([2-(2-hydroxybenzoyl)hydrazino]carbonothioyl}-4-biphenylcarboxamide] | little or no effect | 1600 nM | 
Cc1cc(NCc2cccnc2)n2ncc(-c3ccc(Cl)cc3)c2n1 [Compound 791, 3-(4-chlorophenyl)-5-methyl-N-(3-pyridinylmethyl)pyrazolo[1,5-a]pyrimidin-7-amine] | little or no effect | 1500 nM | < 5 µM
